SMILES strings stand for the structures. Converted amounts (≈) assume the structure as drawn.

The results in this text go back to patent US4593097A, “Phenazine carboxylic acid derivatives and a process for production thereof” (Kyowa Hakko Kogyo Co., Ltd., priority 1983, dated 1986).

The test system of data set [1] is Klebsiella pneumoniae ATCC 10031. Kind of data set: Antibacterial activity by agar dilution method (pH 7.0), Klebsiella pneumoniae ATCC 10031. It counts as cell-based. To be noted: ATCC10031, read-out: Minimum Inhibitory Concentration. From the text: (§1) Antibacterial activities of DC-86-Y, -M, -R and -C against various bacteria determined by agar dilution method (pH 7.0) are shown in Table 2.
For orientation: In agar dilution, organisms are placed on agar that contains the substance at set levels.

Data set [2] concerns Shigella sonnei ATCC 9290. Kind of data set: Antibacterial activity by agar dilution method (pH 7.0), Shigella sonnei ATCC 9290. Type of data set: cell-based. To be noted: ATCC9290, read-out: Minimum Inhibitory Concentration.
From the text: as §1

Data set [3] relates to Salmonella typhosa ATCC 9992. Kind of data set: Antibacterial activity by agar dilution method (pH 7.0), Salmonella typhosa ATCC 9992. It counts as cell-based. To be noted: Salmonella enterica, pH 7, read-out: Minimum Inhibitory Concentration.
From the text: as §1

Data set [4] concerns Sarcoma 180 ascites tumor cells. Kind of data set: Anti-tumor activity against Sarcoma 180 in mice. Type of data set: in vivo, ddy male mice. To be noted: 24 h after transplantation, measured 7 days after transplantation. Here is the method: 5×10^6 Sarcoma 180 ascites tumor cells were transplanted to the hypoderm of the armpit cavity of ddy male mice weighing about 20 g, one group being 6 mice. 24 hours after the transplantation, 0.2 ml of a phosphate buffer saline (PBS) solution of a test compound having various concentrations was intraperitoneally administered once. The composition of PBS is 0.8 g/dl NaCl, 0.02 g/dl KCl, […] Na2 HPO4 and 0.02 g/dl KH2 PO4 (pH 7.2). For comparison, 0.2 ml of PBS containing mitomycin C was intraperitoneally administered 24 hours after the transplantation of the tumor cells. Average tumor volume (mm^3) and T/C (T: average tumor volume of mice treated with the test compound, C: average tumor volume of mice treated with 0.2 ml of PBS intraperitoneally)were measured 7 days after the transplantation and the results shown in Table 3 were obtained.

Another data set concerns Escherichia coli ATCC 26. Kind of data set: Antibacterial activity by agar dilution method (pH 7.0), Escherichia coli ATCC 26. It counts as cell-based. To be noted: ATCC26, read-out: Minimum Inhibitory Concentration.
From the text: as §1

A short description of another data set: in vivo. To be noted: mouse, ip.
In data set [5] the test system is Bacillus subtilis No. 10707. Kind of data set: Antibacterial activity by agar dilution method (pH 7.0), Bacillus subtilis No. 10707. Type of data set: cell-based. To be noted: read-out: Minimum Inhibitory Concentration.
From the text: as §1

The test system of data set [6] is Staphylococcus aureus ATCC 6538P. Kind of data set: Antibacterial activity by agar dilution method (pH 7.0), Staphylococcus aureus ATCC 6538P. Type of data set: cell-based. To be noted: ATCC6538P, read-out: Minimum Inhibitory Concentration.
From the text: as §1

As a reminder, the LD50 is the dose at which mortality reaches 50%. High values mean a less toxic substance, low ones a more toxic substance. Turning to `CC(OC(=O)CCl)c1cccc2nc3c(C(=O)O)cccc3nc12` (centres unmarked) [DC-86-C], the MIC was over 100 µg/mL in data set [1]; 10 µg/mL (≈ 29 µM) in data set [2]; 10 µg/mL (≈ 29 µM) in data set [3]; over 100 µg/mL with Escherichia coli ATCC 26; 0.01 µg/mL (≈ 0.029 µM) in data set [5]; 0.2 µg/mL (≈ 0.58 µM) in data set [6]. Besides, the “T/C (average tumor volume, treated/control)” value in data set [4] (12.5 mg/kg i.p. once) is listed as 0.98; in data set [4] (25 mg/kg i.p. once) it was 0.72; in data set [4] (50 mg/kg i.p. once), “dead”. For the same compound, the LD50 in “in vivo” was 40 mg/kg.
Regarding `CC(OC(=O)CO)c1cccc2nc3c(C(=O)O)cccc3nc12` (centres unmarked) [DC-86-M], the MIC in data set [1] stood at 100 µg/mL (≈ 306 µM); in data set [2] it was 10 µg/mL (≈ 30.6 µM); in data set [3], 10 µg/mL (≈ 30.6 µM); in the data set on Escherichia coli ATCC 26, 100 µg/mL (≈ 306 µM); in data set [5], 0.1 µg/mL (≈ 0.306 µM); in data set [6], 0.3 µg/mL (≈ 0.919 µM). The results for the “T/C (average tumor volume, treated/control)” value in data set [4] (5 mg/kg i.p. once), in data set [4] (10 mg/kg i.p. once) and in data set [4] (20 mg/kg i.p. once) were 0.97, 0.82 and 0.36, respectively. The same compound gave an LD50 in “in vivo” of 20 mg/kg.
For the compound `CC(OC(=O)COC(C)(C)C)c1cccc2nc3c(C(=O)O)cccc3nc12` (centres unmarked) [DC-86-R], the MIC is over 100 µg/mL in data set [1]; over 100 µg/mL in data set [2]; over 100 µg/mL in data set [3]; over 100 µg/mL with Escherichia coli ATCC 26; 0.7 µg/mL (≈ 1.83 µM) in data set [5]; 3 µg/mL (≈ 7.84 µM) in data set [6]. For the same compound, the “T/C (average tumor volume, treated/control)” value in data set [4] (50 mg/kg i.p. once) is given as 1.06; in data set [4] (100 mg/kg i.p. once) it was 0.87; in data set [4] (200 mg/kg i.p. once) it was 0.86. Moreover, in “in vivo”, the LD50 worked out at 250 mg/kg.
As for `CC(O)c1cccc2nc3c(C(=O)O)cccc3nc12` (centres unmarked) [DC-86-Y, metal not drawn], the MIC (in data set [1]; in data set [2]; in data set [3]; in the data set on Escherichia coli ATCC 26; in data set [5]; in data set [6]) was over 100 µg/mL in each case. This compound gave an LD50 in “in vivo” of 300 mg/kg.
On to `CO[C@@]12[C@H](COC(N)=O)C3=C(C(=O)C(C)=C(N)C3=O)N1C[C@@H]1N[C@@H]12` [Mitomycin C, mitomycin C, reference compound], for which the “T/C (average tumor volume, treated/control)” value in data set [4] (6 mg/kg i.p.) is on record as 0.28.
